US12679843B2, “Pyrrolopyrimidine amines as complement inhibitors” (BioCryst Pharmaceuticals, Inc., priority 2020, dated 2026)

Each compound was assayed against Factor D (Homo sapiens, UniProt P00746) (assay: Factor D esterolytic assay (Z-Lys-SBzl thioester substrate, DTNB, 405 nm)). Conditions: substrate Z-Lys-SBzl 1.29 mM, 100 mM HEPES, 500 mM NaCl, pH 7.5, 10% DMSO, tested a minimum of three times.
Sequence of Factor D (P00746 26-253): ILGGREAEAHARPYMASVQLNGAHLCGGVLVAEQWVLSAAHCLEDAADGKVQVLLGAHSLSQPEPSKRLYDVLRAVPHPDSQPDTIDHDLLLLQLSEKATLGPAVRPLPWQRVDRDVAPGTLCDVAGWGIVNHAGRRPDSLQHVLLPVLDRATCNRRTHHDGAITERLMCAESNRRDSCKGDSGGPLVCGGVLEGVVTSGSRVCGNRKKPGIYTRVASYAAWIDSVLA
Assay type: biochemical
Description: The IC50 value of a compound (i.e., the concentration of the compound that inhibits 50% of the enzymatic activity) was calculated according to the procedure reported in U.S. Pat. No. 6,653,340 B1, e.g., column 74 (incorporated by reference).
Specifically, the compounds were dissolved in a stock solution of DMSO at 10.0 or 100 mM. A portion of this stock solution was added to assay buffer in a final volume of 50 μL. Controls included buffer alone and enzyme solutions to which DMSO was added. Substrate was added to the reaction wells immediately or after incubation at room temperature. The reaction rates were measured spectrophotometrically by the generation of product at 405 nm for 600 sec. Background absorbance at 690 nm was measured and subtracted from the absorbance at 405 nm for each well.
The reaction rate for enzyme alone was compared to the rate of enzyme in the presence of inhibitor and the percent inhibition was calculated as shown below: Percent Inhibition=[Rate without inhibitor−Rate with inhibitor)/(Rate without inhibitor)]−100 Factor D Esterolytic Assay:
An established esterolytic assay for the measurement of Factor D activity and inhibition of Factor D activity was used (Kam, C. M.; McRae, B. J.; Harper, J. W.; Niemann, M. A.; Volanakis, J. E.; Powers, J. C. Human complement proteins D. C2, and B Active site mapping with peptide thioester substrates. J Biol. Chem. 1987, 262, 3444-3451). For this assay Z-Lys-SBzl, 1.29 mM (Kim, S.; Narayana, S. V. L; Volanakis, J. E. Mutational analysis of the substrate binding site of human complement Factor D. Biochemistry, 1994, 33, 14393-14399) was used as the substrate for Factor D ([…]). Hydrolysis of this compound by Factor D liberated a free sulfhydryl group which is then reacted with 5,5′-dithiobis(2-nitrobenzoic acid) producing an intense yellow color (Habeeb, A. F. S. A. Reaction of protein sulfhydryl groups with Ellman's Reagent. Methods in Enzymol. 1976, 25, 457-464). The assays were performed in 96 well microtiter plates and rates of hydrolysis were monitored at 405 nm on a Biotek Synergy H1 plate reader. Hydrolysis rates were reported as change in mOD/min. The assay was conducted in 100 mM HEPES, 500 mM NaCl, pH 7.5 containing 10% DMSO in a final volume of 50 μL per well.
An IC50, a compound concentration which inhibits 50% of the enzymatic activity, was calculated. Compounds in the examples were tested a minimum of three times.
Compound `CC1(C)CC(O)CC(NC(=O)[C@@H]2C[C@H]3C[C@H]3N2C(=O)Cn2cnc3c(N)ncnc32)C1` (mixture of isomers) [Compound 106b, (1R,3S,5R)-2-(2-(6-amino-9H-purin-9-yl)acetyl)-N-(5-hydroxy-3,3-dimethylcyclohexyl)-2-azabicyclo[3.1.0]hexane-3-carboxamide] has an IC50 greater than 1000 nM.
In the case of `Cc1ccc2c(c1)c1c(N)ncnc1n2C(C)C(=O)N1[C@@H]2C[C@@H]2C[C@H]1C(=O)Nc1cccc(Br)n1` (single isomer, unassigned) [Compound 22c], the IC50 is reported as greater than 1000 nM.
Compound `Cc1ccc2c(c1)c1c(N)ncnc1n2C(C)C(=O)N1[C@@H]2C[C@@H]2C[C@H]1C(=O)Nc1cccc(Br)n1` (single isomer, unassigned) [Compound 22d] has an IC50 greater than 1000 nM.
`Nc1ncnc2c1cc1n2C(C(=O)N2[C@@H](C(=O)Nc3cccc(Br)n3)C[C@@H]3C[C@@H]32)Oc2ccccc2-1` (single isomer, unassigned) [Compound 293a] gave an IC50 of 100 to 1000 nM.
Work on `Nc1ncnc2c1cc1n2C(C(=O)N2[C@@H](C(=O)Nc3cccc(Br)n3)C[C@@H]3C[C@@H]32)Oc2ccccc2-1` (single isomer, unassigned) [Compound 293b] yielded an IC50 of less than 100 nM.
With `Cc1ccc(Br)nc1NC(=O)[C@@H]1C[C@H]2C[C@H]2N1C(=O)Cn1c2ccccc2c2c(N)ncnc21` [Compound 1e, (1R,3S,5R)-2-(2-(4-amino-9H-pyrimido[4,5-b]indol-9-yl)acetyl)-N-(6-bromo-3-methylpyridin-2-yl)-2-azabicyclo[3.1.0]hexane-3-carboxamide] the IC50 was less than 100 nM.
In the case of `Cc1ccc(Br)nc1NC(=O)[C@@H]1C[C@H]2C[C@H]2N1C(=O)Cc1ccc2c(N)ncnn12` [Compound 2d, (1R,3S,5R)-2-(2-(4-aminopyrrolo[2,1-f][1,2,4]triazin-7-yl)acetyl)-N-(6-bromo-3-methylpyridin-2-yl)-2-azabicyclo[3.1.0]hexane-3-carboxamide], the IC50 is reported as greater than 1000 nM.
`Cc1ccc(Br)nc1NC(=O)[C@@H]1C[C@@H](F)CN1C(=O)Cn1c2ccccc2c2c(N)ncnc21` [Compound 3b, (2S,4R)-1-(2-(4-amino-9H-pyrimido[4,5-b]indol-9-yl)acetyl)-N-(6-bromo-3-methylpyridin-2-yl)-4-fluoropyrrolidine-2-carboxamide] gave an IC50 of less than 100 nM.
For `Nc1ncnc2c1c1ccccc1n2CC(=O)N1[C@@H]2C[C@@H]2C[C@H]1C(=O)Nc1cccc(Br)n1` [Compound 4b, (1R,3S,5R)-2-(2-(4-amino-9H-pyrimido[4,5-b]indol-9-yl)acetyl)-N-(6-bromopyridin-2-yl)-2-azabicyclo[3.1.0]hexane-3-carboxamide], the IC50 was less than 100 nM.
`Nc1ncnc2c1ccn2CC(=O)N1C[C@H](F)C[C@H]1C(=O)Nc1cccc(Br)n1` [Compound 5e, (2S,4R)-1-(2-(4-amino-7H-pyrrolo[2,3-d]pyrimidin-7-yl)acetyl)-N-(6-bromopyridin-2-yl)-4-fluoropyrrolidine-2-carboxamide] was tested, and the IC50 was 100 to 1000 nM.
In the case of `Cc1ccc2c(c1)c1c(N)ncnc1n2CC(=O)N1[C@@H]2C[C@@H]2C[C@H]1C(=O)Nc1cccc(Br)n1` [Compound 6e, (1R,3S,5R)-2-(2-(4-amino-6-methyl-9H-pyrimido[4,5-b]indol-9-yl)acetyl)-N-(6-bromopyridin-2-yl)-2-azabicyclo[3.1.0]hexane-3-carboxamide], the IC50 is reported as less than 100 nM.
With `Cc1ccc2c(c1)c1c(N)ncnc1n2CC(=O)N1C[C@H](F)C[C@H]1C(=O)NCc1cccc(Cl)c1F` [Compound 7b, (2S,4R)-1-(2-(4-amino-6-methyl-9H-pyrimido[4,5-b]indol-9-yl)acetyl)-N-(3-chloro-2-fluorobenzyl)-4-fluoropyrrolidine-2-carboxamide] the IC50 was less than 100 nM.
`Cc1ccc2c(c1)c1c(N)ncnc1n2CC(=O)N1[C@H](C(=O)Nc2cccc(Br)n2)C[C@@]2(C)C[C@@H]12` [Compound 8b, (1R,3S,5R)-2-(2-(4-amino-6-methyl-9H-pyrimido[4,5-b]indol-9-yl)acetyl)-N-(6-bromopyridin-2-yl)-5-methyl-2-azabicyclo[3.1.0]hexane-3-carboxamide] gave an IC50 of less than 100 nM.
Compound `C[C@@]12C[C@@H](C(=O)Nc3cccc(Br)n3)N(C(=O)Cn3c4ccccc4c4c(N)ncnc43)[C@@H]1C2` [Compound 9a, (1R,3S,5R)-2-(2-(4-amino-9H-pyrimido[4,5-b]indol-9-yl)acetyl)-N-(6-bromopyridin-2-yl)-5-methyl-2-azabicyclo[3.1.0]hexane-3-carboxamide] has an IC50 of less than 100 nM.
Work on `Cc1ccc2c(c1)c1c(N)ncnc1n2CC(=O)N1[C@H](C(=O)Nc2nc(Br)ccc2C)C[C@@]2(C)C[C@@H]12` [Compound 10b, (1R,3S,5R)-2-(2-(4-amino-6-methyl-9H-pyrimido[4,5-b]indol-9-yl)acetyl)-N-(6-bromo-3-methylpyridin-2-yl)-5-methyl-2-azabicyclo[3.1.0]hexane-3-carboxamide] yielded an IC50 of less than 100 nM.
`Cc1ccc(Br)nc1NC(=O)[C@@H]1C[C@@]2(C)C[C@H]2N1C(=O)Cn1c2ccc(C(F)(F)F)cc2c2c(N)ncnc21` [Compound 11f, (1R,3S,5R)-2-(2-(4-amino-6-(trifluoromethyl)-9H-pyrimido[4,5-b]indol-9-yl)acetyl)-N-(6-bromo-3-methylpyridin-2-yl)-5-methyl-2-azabicyclo[3.1.0]hexane-3-carboxamide] gave an IC50 of less than 100 nM.
`Cc1ccc(Br)nc1NC(=O)[C@@H]1C[C@@]2(C)C[C@H]2N1C(=O)Cn1c2ccccc2c2c(N)ncnc21` [Compound 12a, (1R,3S,5R)-2-(2-(4-amino-9H-pyrimido[4,5-b]indol-9-yl)acetyl)-N-(6-bromo-3-methylpyridin-2-yl)-5-methyl-2-azabicyclo[3.1.0]hexane-3-carboxamide] gave an IC50 of less than 100 nM.
`Nc1ncnc2c1c1ccccc1n2CC(=O)N1CCC[C@H]1C(=O)Nc1cccc(Br)n1` [Compound 13b, (S)-1-(2-(4-amino-9H-pyrimido[4,5-b]indol-9-yl)acetyl)-N-(6-bromopyridin-2-yl)pyrrolidine-2-carboxamide] showed an IC50 of 100 to 1000 nM.
In the case of `Cc1ccc(Br)nc1NC(=O)[C@@H]1C[C@@H](F)CN1C(=O)Cn1c2ccc(C(F)(F)F)cc2c2c(N)ncnc21` [Compound 14a, (2S,4R)-1-(2-(4-amino-6-(trifluoromethyl)-9H-pyrimido[4,5-b]indol-9-yl)acetyl)-N-(6-bromo-3-methylpyridin-2-yl)-4-fluoropyrrolidine-2-carboxamide], the IC50 is reported as less than 100 nM.
`Cc1ccc(Br)nc1NC(=O)[C@@H]1C[C@H]2C[C@H]2N1C(=O)Cn1c2ccc(C(F)(F)F)cc2c2c(N)ncnc21` [Compound 15a, (1R,3S,5R)-2-(2-(4-amino-6-(trifluoromethyl)-9H-pyrimido[4,5-b]indol-9-yl)acetyl)-N-(6-bromo-3-methylpyridin-2-yl)-2-azabicyclo[3.1.0]hexane-3-carboxamide] gave an IC50 of less than 100 nM.
Compound `Nc1ncnc2c1c1ccc(C(F)(F)F)cc1n2CC(=O)N1[C@@H]2C[C@@H]2C[C@H]1C(=O)Nc1cccc(Br)n1` [Compound 16e, (1R,3S,5R)-2-(2-(4-amino-7-(trifluoromethyl)-9H-pyrimido[4,5-b]indol-9-yl)acetyl)-N-(6-bromopyridin-2-yl)-2-azabicyclo[3.1.0]hexane-3-carboxamide] has an IC50 of less than 100 nM.
`CC(C)(C)OC(=O)Nc1ccc2c3c(N)ncnc3n(CC(=O)N3[C@@H]4C[C@@H]4C[C@H]3C(=O)Nc3cccc(Br)n3)c2c1` [Compound 17f, tert-butyl (4-amino-9-(2-((1R,3S,5R)-3-((6-bromopyridin-2-yl)carbamoyl)-2-azabicyclo[3.1.0]hexan-2-yl)-2-oxoethyl)-9H-pyrimido[4,5-b]indol-7-yl)carbamate] gave an IC50 of less than 100 nM.
`Nc1ccc2c3c(N)ncnc3n(CC(=O)N3[C@@H]4C[C@@H]4C[C@H]3C(=O)Nc3cccc(Br)n3)c2c1` [Compound 18a, (1R,3S,5R)—N-(6-bromopyridin-2-yl)-2-(2-(4,7-diamino-9H-pyrimido[4,5-b]indol-9-yl)acetyl)-2-azabicyclo[3.1.0]hexane-3-carboxamide] gave an IC50 of less than 100 nM.
In the case of `Nc1ncnc2c1c1ccccc1n2CC(=O)N1C[C@H](F)C[C@H]1C(=O)Nc1cccc(Br)n1` [Compound 19a, (2S,4R)-1-(2-(4-amino-9H-pyrimido[4,5-b]indol-9-yl)acetyl)-N-(6-bromopyridin-2-yl)-4-fluoropyrrolidine-2-carboxamide], the IC50 is reported as less than 100 nM.
Work on `Nc1ncnc2c1c1ccccc1n2CC(=O)N1C[C@H](F)C[C@H]1C(=O)NCc1cccc(Cl)c1F` [Compound 20a, (2S,4R)-1-(2-(4-amino-9H-pyrimido[4,5-b]indol-9-yl)acetyl)-N-(3-chloro-2-fluorobenzyl)-4-fluoropyrrolidine-2-carboxamide] yielded an IC50 of less than 100 nM.
